In PMC5778159 (Naunyn-Schmiedeberg's Archives of Pharmacology, 2017):
Where a name gives a salt, the structure may show the parent alone.

Assays:
[1] = Isolated perfused rat liver (IPRL) study, recirculating; details: for form eliminated with bile: mass spectrometric analysis of rat bile, precursor ion 292 mode
Description: Rat livers were perfused in situ using PS-1 perfusion system from Harvard Apparatus-Hugo Sachs Electronics (HA-HSE). […] The temperature of the perfusion medium was thermostatically controlled at 37 °C. In each experiment, the common bile duct was cannulated with PE-10 tubing. […] Experiments were carried out in a recirculating manner with the total volume of perfusate equal 200 mL. […] Samples of bile were collected in pre-weighed Eppendorf vials and measured by gravimetric volume at the end of perfusion period, assuming a density of 1. Perfusate was collected from the reservoir at 5 min intervals up to 45 min.
Non-compartmental estimates of hepatic pharmacokinetic parameters were determined from the outflow concentration-time profiles. The hepatic extraction ratio (ERH) was calculated according to the following equation:2 ERH=CLH/Q where CLH is a hepatic clearance (per gram of liver) and Q is a perfusate flow (per gram of liver).
The apparent hepatobiliary clearance (CLb,app) was calculated as the cumulative amount of drug excreted in bile divided by the AUC0-t of the drug in the perfusate.

[2] = humans ref Carlhant et al. [1990]; cited from earlier work
[3] = Stability of analytes in rat plasma (bench top, freezer, freeze/thaw, autosampler); format: in vitro ADME; details: bench top 2 h, − 30°C 90 days, autosampler 10°C up to 24 h
Description: The stability of analytes was determined in the battery of tests according to the appropriate guidelines. Namely, the bench top stability (for 2 h), freezer stability (at − 30°C for 90 days), freeze/thaw stability and post preparative autosampler stability (at 10°C up to 24 h). Samples were considered to be stable when 85–115% of the initial concentrations were found.

[4] = PK model with a metabolite compartment fitted simultaneously to i.v. and i.p. rat plasma data
Description: (§1) Pharmacokinetic parameters were calculated by employing a non-compartmental approach, using Phoenix WinNonlin software v. 6.3 (Pharsight, USA). For i.v. administration, plasma concentration at time zero (C 0) was back-extrapolated using log-linear regression, while the maximum concentration after i.p. administration (C max) and the time to C max (t max) were obtained directly from the concentration-time data. The area under the mean plasma concentration versus time curve extrapolated to infinity (AUC0-inf) was estimated using the log/linear trapezoidal rule. AUMC0-inf was estimated by calculation of the total area under the first-moment curve by combining the trapezoid calculation of AUMC0-t and extrapolated area. The mean residence time (MRT) was calculated from AUMC0-inf/AUC0-inf. The terminal rate constant (λ z) was calculated by log-linear regression of the drug concentration data in the terminal phase and the terminal half-life (t 1/2) was calculated as 0.693/λ z. The systemic clearance (CL) was estimated from the administered dose divided by AUC0-inf. The volume of distribution at steady state (V ss) was calculated from D i.v.⋅AUMC/AUC^2, where D i.v is the dose administered i.v. in mg per kg of body weight. The concentration versus time profiles of the parent drug and metabolite following both routes of administration were also fitted simultaneously to the pharmacokinetic model with a metabolite compartment to obtain one set of parameters. During iteration process, the fraction of dose absorbed (F) was fixed to the value calculated using the following equation:1 F=AUC0−ti.p.∙Di.v./AUC0−ti.v.∙Di.p.

[5] = Pharmacokinetic study in rats after single i.v. or i.p. tianeptine, non-compartmental analysis; details: rat
Description: Male Wistar rats, 13–15 weeks of age and weighing between 200 and 220 g, were used in all the experiments. They were kept under conditions of constant temperature (21–25 °C) and a relative humidity of approximately 40–65% with a standard light/dark cycle. Animals were housed in the stainless steel cages with suspended wire-mesh floors and had free access to water and the commercial rodent chow.
Six rats were used in PK experiments, and 3 days prior to the experiment, rat jugular vein was cannulated allowing for the multiple blood sampling from a single animal. […] Plasma was harvested by centrifuging at 3000 r.p.m. for 10 min and stored at − 30°C until bioanalysis. Plasma samples (100 μL) were further processed as described in “Sample preparation” section.
as §1
where AUC0-t is the area under the concentration versus time curve calculated to the last measured point and D is the dose administered.

[6] = male, Wistar, in vivo, ip, 10 mg/kg
[7] = male, Wistar, in vivo, iv, 1 mg/kg

## CN1c2ccccc2C(NCCCCCCC(=O)O)c2ccc(Cl)cc2S1(=O)=O (centres unmarked) [Tianeptine, Tianeptine sodium salt, reference compound]
[1]
  form eliminated with bile: glucuronide and glutamine conjugates

## CN1c2ccccc2C(NCCCCC(=O)O)c2ccc(Cl)cc2S1(=O)=O (centres unmarked) [MC5, tianeptine metabolite MC5 sodium salt]
[1]; isolated perfused rat liver, mean ± SD
  metabolic ratio of MC5 (AUC0-t metabolite / AUC0-t tianeptine): 18.76 ± 8.11%
[1]
  form eliminated with bile: glucuronide and glutamine conjugates
[1]; up to 45 min of perfusion, mean ± SD
  percent eliminated into the bile: 3.07 ± 0.66 % of the administered dose
[2]
  time to C max: 2.96 ± 0.95 h
[3]
  stability in rat plasma: no stability related problems
[4]; male, Wistar, in vivo
  half-life: 1.66 h
  k el: 0.000116 s⁻¹
[4]; metabolite compartment, i.v. and i.p. fitted simultaneously
  V m/f m: 2.971 L/kg
[5]; after both routes of administration (i.v. and i.p.) of tianeptine
  time at which C max attained: 30 min
[5]; after tianeptine i.p. 10 mg/kg, GM (90% CI), n = 3
  t 0.5λz: 3.69 (1.39–9.83) h
[5]; [6]
  Cmax: 2020 ng/mL
  MRT: 4.1 h
  Tmax: 0.5 h
  k el: 5.19e-05 s⁻¹
[5]; [7]
  MRT: 8.28 h
  Tmax: 0.4 h
  half-life: 7.53 h
  k el: 2.5e-05 s⁻¹
[5]; regardless of the route of administration
  overall exposure (AUC) to MC5 relative to tianeptine: 1.2 times
